The record followed here is DBAASP.

In brackets after ≈: the same amount, converted by molar mass. Several values for one entry are separate records, joined by “and”; a condition that tells them apart may be missing. Equal entries are not always repeated.

Some test systems named below: Candida krusei; Cryptococcus neoformans; Aspergillus fumigatus; Escherichia coli D22; Micrococcus luteus A270; Escherichia coli IP76-24; Microsporum canis IP1194; Cupriavidus necator H16; Escherichia coli JM109.
Assay in all cases: ≥ marks a high value that may be exact or a test limit, other limits are often not marked, values filed in µg/mL are converted to µM
The subject of experiment [1] is Acinetobacter baumannii ATCC 19606.
For experiment [2], the system named is Aggregatibacter actinomycetemcomitans ATCC 29522.
Experiment [3] deals with Candida krusei ATCC 20029.
For experiment [4], the system named is Cryptococcus gattii ATCC 32608.
The subject of experiment [5] is Cryptococcus neoformans ATCC 24067.
For experiment [6], the system named is Escherichia coli ATCC 10536.
Experiment [7] relates to Pseudomonas aeruginosa ATCC 27853.
Experiment [8] concerns Staphylococcus aureus ATCC 6538.
In experiment [9] the test system is Staphylococcus epidermidis ATCC 12228.
The test system of experiment [10] is Streptococcus sanguinis ATCC 10556.
Experiment [11] deals with Neurospora crassa CBS 327-54.
Experiment [12] relates to Aeromonas caviae IP67-16T.
The subject of experiment [13] is Aspergillus fumigatus IP1025-70.
In experiment [14] the test system is Aspergillus niger IP218-53.
The test system of experiment [15] is Candida albicans IP884-65.
The test system of experiment [16] is Candida albicans IP886-65.
For experiment [17], the system named is Cryptococcus neoformans IP960-67.
Experiment [18] relates to Cryptococcus neoformans IP962-67.
Experiment [19] has as its system Enterococcus faecalis IP103214.
For experiment [20], the system named is Nocardia brasiliensis IP16-80.
In experiment [21] the test system is Saccharomyces cerevisiae IP118079.
Experiment [22] concerns Staphylococcus aureus IP76-25.
The test system of experiment [23] is Trichophyton mentagrophytes IP877-71.
The test system of experiment [24] is Trichophyton rubrum IP2043-92.
Experiment [25] relates to Trichophyton simii IP1063-74.
For experiment [26], the system named is Trichophyton simii J43 IP903-65.
Experiment [27] deals with Escherichia coli ATCC 25922.
The test system of experiment [28] is Klebsiella pneumoniae ST258.
Experiment [29] deals with Mycobacterium tuberculosis CAS3.
For experiment [30], the system named is Mycobacterium tuberculosis FYX.
In experiment [31] the test system is Mycobacterium tuberculosis H37Rv.
Experiment [32] has as its system Mycobacterium tuberculosis WXY.
In experiment [33] the test system is Mycobacterium tuberculosis.
In experiment [34] the test system is Escherichia coli BL21(DE3).
Experiment [35] deals with Pseudomonas putida GPp104.

`CC[C@H](C)[C@H](N)C(=O)N[C@@H](Cc1c[nH]c2ccccc12)C(=O)N[C@@H](CC(C)C)C(=O)N[C@H](C(=O)N[C@@H](C)C(=O)N[C@@H](CC(C)C)C(=O)N[C@@H](CCCCN)C(=O)N[C@@H](Cc1ccccc1)C(=O)N[C@@H](CC(C)C)C(=O)NCC(=O)N[C@@H](CCCCN)C(=O)N[C@@H](CC(N)=O)C(=O)N[C@@H](CC(C)C)C(=O)NCC(=O)N[C@@H](CCCCN)C(=O)N[C@@H](Cc1cnc[nH]1)C(=O)N[C@@H](CC(C)C)C(=O)N[C@@H](C)C(=O)N[C@@H](CCCCN)C(=O)N[C@@H](CCC(N)=O)C(=O)N[C@@H](CCC(N)=O)C(=O)N[C@@H](CC(C)C)C(=O)N[C@@H](C)C(=O)N[C@@H](CCCCN)C(=O)N[C@@H](CC(C)C)C(N)=O)[C@@H](C)O` [IWLTALKFLGKNLGKHLAKQQLAKL]: the MIC in experiment [1] worked out at 0.7 µM (≈ 1.98 µg/mL); in experiment [2] it was 10.6 µM (≈ 30 µg/mL); in [3] it was 14.2 µM (≈ 40.3 µg/mL); against Candida krusei, 26.3 µM (≈ 74.5 µg/mL); in experiment [4] it was 2.23 µM (≈ 6.32 µg/mL); in [5], 7.11 µM (≈ 20.1 µg/mL). The MIC in the experiment with Cryptococcus neoformans was determined as 13.2 µM (≈ 37.4 µg/mL); in experiment [6], 5.52 µM (≈ 15.6 µg/mL); in experiment [7], 2.82 µM (≈ 7.99 µg/mL); in experiment [8], 5.52 µM (≈ 15.6 µg/mL); in [9], 0.7 µM (≈ 1.98 µg/mL); in experiment [10], 10.9 µM (≈ 30.9 µg/mL).
Take `CSCC[C@H](NC(=O)[C@H](CO)NC(=O)[C@@H](N)CO)C(=O)N[C@@H](CCCCN)C(=O)N[C@@H](CC(C)C)C(=O)N[C@@H](CO)C(=O)N[C@@H](Cc1ccccc1)C(=O)N[C@@H](CCCN=C(N)N)C(=O)N[C@@H](C)C(=O)N[C@@H](CCCN=C(N)N)C(=O)N[C@@H](C)C(=O)N[C@@H](Cc1ccc(O)cc1)C(=O)NCC(=O)N[C@@H](Cc1ccccc1)C(=O)N[C@@H](CCCN=C(N)N)C(=O)NCC(=O)N1CCC[C@H]1C(=O)NCC(=O)N[C@@H](CC(C)C)C(=O)N[C@@H](CCC(N)=O)C(=O)N[C@@H](CC(C)C)C(=O)O` [SSMKLSFRARAYGFRGPGLQL]: the MIC in the experiment with Aspergillus fumigatus is no less than 100 µM; in the experiment with Escherichia coli D22, no less than 100 µM; in the experiment on Micrococcus luteus A270, 10 µM (≈ 23.4 µg/mL); in [11], 10 µM (≈ 23.4 µg/mL).
As to `CC[C@H](C)[C@H](NC(=O)[C@H](CCCCN)NC(=O)[C@H](CO)NC(=O)[C@H](Cc1c[nH]c2ccccc12)NC(=O)[C@H](CC(C)C)NC(=O)CN)C(=O)N[C@@H](CCCCN)C(=O)N[C@H](C(=O)N[C@@H](C)C(=O)NCC(=O)N[C@@H](CCCCN)C(=O)N[C@@H](CO)C(=O)N[C@H](C(=O)N[C@@H](C)C(=O)N[C@@H](CCCCN)C(=O)N[C@@H](C)C(=O)N[C@@H](C)C(=O)N[C@@H](C)C(=O)N[C@@H](CCCCN)C(=O)N[C@@H](C)C(=O)N[C@@H](C)C(=O)N[C@H](C(=O)N[C@@H](CCCCN)C(=O)N[C@@H](C)C(=O)N[C@H](C(=O)N[C@H](C(=O)N[C@@H](CC(N)=O)C(=O)N[C@@H](C)C(=O)N[C@H](C(=O)O)C(C)C)[C@@H](C)O)C(C)C)C(C)C)C(C)C)[C@@H](C)O` [GLWSKIKTAGKSVAKAAAKAAVKAVTNAV], the MIC in experiment [12] is no less than 35 µM; in [13], no less than 70 µM; in experiment [14], 30 µM (≈ 85.2 µg/mL); in experiment [15] it was 10 µM (≈ 28.4 µg/mL); in [16], 10 µM (≈ 28.4 µg/mL); in experiment [17], 1 µM (≈ 2.84 µg/mL). Besides, the MIC in [18] was 1 µM (≈ 2.84 µg/mL); in experiment [19], no less than 40 µM; in the experiment on Escherichia coli IP76-24 it was no less than 35 µM; against Microsporum canis IP1194, 15 µM (≈ 42.6 µg/mL); in experiment [20] it was no less than 40 µM; in [21], 5 µM (≈ 14.2 µg/mL). Moreover, the MIC stood at 2 µM (≈ 5.68 µg/mL) in experiment [22]; 20 µM (≈ 56.8 µg/mL) in experiment [23]; 20 µM (≈ 56.8 µg/mL) in experiment [24]; 30 µM (≈ 85.2 µg/mL) in [25]; 20 µM (≈ 56.8 µg/mL) in [26].
As to `CC(C)C[C@H](NC(=O)[C@H](CCCCN)NC(=O)[C@H](CCCCN)NC(=O)[C@H](CO)NC(=O)[C@H](Cc1ccccc1)NC(=O)[C@H](CCCCN)NC(=O)[C@H](CCCCN)NC(=O)[C@H](CC(C)C)NC(=O)CNC(=O)[C@H](CCCCN)NC(=O)[C@H](CC(C)C)NC(=O)CNC(=O)[C@H](Cc1c[nH]c2ccccc12)NC(=O)[C@@H](N)Cc1ccccc1)C(=O)O` [FWGLKGLKKFSKKL], the MIC is 25 µM (≈ 42 µg/mL) in experiment [27]; 29.8 µM (≈ 50 µg/mL) in [28]; 11.2 µM (≈ 18.8 µg/mL) in experiment [29]; 11.2 µM (≈ 18.8 µg/mL) in experiment [30]; 11.9 µM and 11.2 µM in experiment [31]; 22.3 µM (≈ 37.5 µg/mL) in [32]. For the same compound, the MIC was 5.95 µM (≈ 10 µg/mL) in experiment [33] and greater than 29.8 µM in experiment [7].
In the case of `CC[C@H](C)[C@H](NC(=O)[C@H](Cc1ccc(O)cc1)NC(=O)[C@@H](NC(=O)[C@@H]1CCCN1C(=O)[C@H](CCCN=C(N)N)NC(=O)[C@@H](NC(=O)[C@@H]1CCCN1C(=O)[C@@H](N)CCCN=C(N)N)C(C)C)C(C)C)C(=O)N1CCC[C@H]1C(=O)N[C@@H](CCC(N)=O)C(=O)N1CCC[C@H]1C(=O)N[C@@H](CCCN=C(N)N)C(=O)N1CCC[C@H]1C(=O)N1CCC[C@H]1C(=O)N[C@@H](Cc1cnc[nH]1)C(=O)N1CCC[C@H]1C(=O)N[C@@H](CCCN=C(N)N)C(=O)N[C@@H](CC(C)C)C(=O)O` [RPVRPVYIPQPRPPHPRL], the MIC against Cupriavidus necator H16 worked out at 10 µM (≈ 21.8 µg/mL); in experiment [34], 0.313 µM (≈ 0.681 µg/mL); with Escherichia coli JM109 it was 6.25 µM (≈ 13.6 µg/mL); in experiment [35], 6.25 µM (≈ 13.6 µg/mL).
